Results from patent US20140120087A1, “TRIAZOLOPYRIDINES” (BAYER INTELLECTUAL PROPERTY GMBH, priority 2011, published 2014).

Tests used:
[1] = Hydrolytic stability assay at pH 2; type: physicochemical; conditions: buffer pH 2, 37° C., compounds of the invention
Method: The hydrolytic stability assay investigates the stability of a compound in an aqueous buffer system. Standard solution stability assay is run in 0.05 M Phosphate buffer at pH 7.4 (pH of blood plasma) at 37° C. As compounds in the GI tract are exposed to a wide variety of pHs any relevant pH (as pH 2 to simulate the acidic condition of the GI tract in the following experiment) can be chosen. Compounds are incubated in relevant solution at 37° C. and analyzed by HPLC immediately after incubation and after 1, 2 and 24 hrs. Degradation rate (decay in %) is calculated by relating peak areas after 1, 2 and 24 hrs to the time zero injection.
Compound is available as 10 mM in DMSO (solution 1). 2.5 μL of solution 1 is dissolved in 1 mL acetonitrile leading to solution 2. Poorly soluble compounds may demand another dilution step of solution 2 (1:5 and 1:10 respectively) in Acetonitrile). Solution 2 is incubated at 37° C. in a tempered HPLC autosampler. 1 mL buffer pH 2 is transferred into an HPLC vial. 100 μL of solution 2 is added to the buffer pH 2 solution and mixed thoroughly. Immediately after mixing the combined solution is injected into the HPLC to give the time zero injection. Injections are repeated after 1, 2 and 24 hrs.
The degradation rate (decay in %) is calculated using HPLC software Millennium and Excel respectively.

Mps-1 kinase [2] = target: T1, Mps-1 kinase (Homo sapiens, UniProt P33981); assay: Mps-1 kinase assay with 2 mM ATP (TR-FRET)
T1 sequence (P33981 1-857): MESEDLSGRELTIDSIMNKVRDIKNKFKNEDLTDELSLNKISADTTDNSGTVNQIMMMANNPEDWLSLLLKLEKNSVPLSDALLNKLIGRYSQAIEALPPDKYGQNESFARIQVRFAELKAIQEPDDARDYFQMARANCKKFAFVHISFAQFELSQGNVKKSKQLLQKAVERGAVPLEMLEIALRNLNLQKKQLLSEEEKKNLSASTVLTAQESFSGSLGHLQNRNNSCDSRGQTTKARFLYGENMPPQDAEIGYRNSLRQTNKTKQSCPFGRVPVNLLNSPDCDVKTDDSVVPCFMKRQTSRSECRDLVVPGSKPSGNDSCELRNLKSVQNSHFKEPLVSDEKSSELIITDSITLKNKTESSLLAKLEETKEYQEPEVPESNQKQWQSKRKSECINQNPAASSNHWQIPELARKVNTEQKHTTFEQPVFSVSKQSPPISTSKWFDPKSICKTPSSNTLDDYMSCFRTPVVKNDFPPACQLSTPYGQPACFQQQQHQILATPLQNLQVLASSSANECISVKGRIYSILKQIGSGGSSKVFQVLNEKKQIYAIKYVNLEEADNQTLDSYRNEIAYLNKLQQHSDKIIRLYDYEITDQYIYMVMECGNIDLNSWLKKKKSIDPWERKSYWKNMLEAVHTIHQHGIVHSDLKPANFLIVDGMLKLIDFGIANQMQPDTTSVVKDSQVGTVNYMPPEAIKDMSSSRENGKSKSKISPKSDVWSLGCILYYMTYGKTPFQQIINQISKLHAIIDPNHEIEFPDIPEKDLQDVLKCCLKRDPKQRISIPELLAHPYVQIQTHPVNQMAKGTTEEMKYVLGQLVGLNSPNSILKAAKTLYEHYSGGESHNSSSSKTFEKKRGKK

Mps-1 kinase [3] = target: T1, Mps-1 kinase; assay: Mps-1 kinase assay with 10 μM ATP (TR-FRET)

Row | SMILES | Hydrolysis at pH 2; Decay in % after 24 h [1] | IC50 (Mps-1 kinase [2]) | IC50 (Mps-1 kinase [3])
1 | COc1cc(C(=O)NC(C)(C)C)ccc1Nc1nc2ccc(-c3ccc(NC(=O)Cc4ccc(F)cc4)cc3)cn2n1 [Example 01.5, N-tert-butyl-4-{[6-(4-{[(4-fluorophenyl)acetyl]amino}phenyl)[1,2,4]-triazolo[1,5-α]pyridin-2-yl]amino}-3-methoxybenzamide] | <10% | ≤ 1 nM | ≤ 1 nM
2 | CCN(CC)C(=O)c1ccc(Nc2nc3ccc(-c4ccc(NC(=O)Cc5ccc(F)cc5)cc4)cn3n2)c(OC(C)C)c1 [Example 01.25, N,N-diethyl-4-{[6-(4-{[(4-fluorophenyl)acetyl]amino}phenyl)[1,2,4]triazolo-[1,5-α]pyridin-2-yl]amino}-3-isopropoxybenzamide] | <10% | 1.3 nM | ≤ 1 nM
3 | CC(C)(C)NC(=O)c1ccc(Nc2nc3ccc(-c4ccc(NC(=O)Cc5ccc(F)cc5)cc4)cn3n2)c(OCC(F)(F)F)c1 [Example 01.21, N-tert-butyl-4-{[6-(4-{[(4-fluorophenyl)acetyl]amino}phenyl)[1,2,4]-triazolo[1,5-α]pyridin-2-yl]amino}-3-(2,2,2-trifluoroethoxy)benzamide] | <10% | ≤ 1 nM | ≤ 1 nM
4 | COc1cc(C(=O)NC(C)(C)C)ccc1Nc1nc2ccc(-c3ccc(C(=O)NCc4ccc(F)cc4)cc3)cn2n1 [Example 02.14, N-tert-butyl-4-[(6-{4-[(4-fluorobenzyl)carbamoyl]phenyl}[1,2,4]triazolo-[1,5-α]pyridin-2-yl)amino]-3-methoxybenzamide] | <10% | 2.4 nM | ≤ 1 nM
5 | CCOc1cc(C(=O)N(C)CCO)ccc1Nc1nc2ccc(-c3ccc(C(=O)NCc4ccc(F)cc4)cc3)cn2n1 [Example 02.12, 3-ethoxy-4-[(6-{4-[(4-fluorobenzyl)carbamoyl]phenyl}[1,2,4]triazolo[1,5-α]pyridin-2-yl)amino]-N-(2-hydroxyethyl)-N-methylbenzamide] | <10% | ≤ 1 nM | ≤ 1 nM
6 | COc1cc(C(=O)NCC(F)(F)F)ccc1Nc1nc2ccc(-c3ccc(C(=O)NCc4ccc(F)cc4)cc3)cn2n1 [Example 02.17, 4-[(6-{4-[(4-fluorobenzyl)carbamoyl]phenyl}[1,2,4]triazolo[1,5-α]pyridin-2-yl)amino]-3-methoxy-N-(2,2,2-trifluoroethyl)benzamide] | <10% | 4.6 nM | ≤ 1 nM
7 | CCNC(=O)c1ccc(Nc2nc3ccc(-c4ccc(NC(=O)Cc5ccc(F)cc5)cc4)cn3n2)c(OCC)c1 [Example 01.16, 3-ethoxy-N-ethyl-4-{[6-(4-{[(4-fluorophenyl)acetyl]amino}phenyl)[1,2,4]-triazolo[1,5-α]pyridin-2-yl]amino}benzamide] | <10% | ≤ 1 nM | ≤ 1 nM
8 | CCOc1cc(C(=O)N(C)CCO)ccc1Nc1nc2ccc(-c3ccc(NC(=O)Cc4ccc(F)cc4)cc3)cn2n1 [Example 01.19, 3-ethoxy-4-{[6-(4-{[(4-fluorophenyl)acetyl]amino}phenyl)[1,2,4]triazolo-[1,5-α]pyridin-2-yl]amino}-N-(2-hydroxyethyl)-N-methylbenzamide] | <10% | ≤ 1 nM | ≤ 1 nM
9 | Cc1cc(N(C)C)ccc1Nc1nc2ccc(-c3ccc(C(=O)NCc4ccc(F)cc4)cc3)cn2n1 [Example 02.24, 4-(2-{[4-(dimethylamino)-2-methylphenyl]amino}[1,2,4]triazolo[1,5-α]-pyridin-6-yl)-N-(4-fluorobenzyl)benzamide] | <10% | 5.9 nM | ≤ 1 nM
10 | CCOc1cc(C(=O)NCC(C)(C)O)ccc1Nc1nc2ccc(-c3ccc(NC(=O)Cc4ccc(F)cc4)cc3)cn2n1 [Example 01.17, 3-ethoxy-4-{[6-(4-{[(4-fluorophenyl)acetyl]amino}phenyl)[1,2,4]triazolo-[1,5-α]pyridin-2-yl]amino}-N-(2-hydroxy-2-methylpropyl)benzamide] | <10% | ≤ 1 nM | ≤ 1 nM
11 | CC(C)(O)CNC(=O)c1ccc(Nc2nc3ccc(-c4ccc(NC(=O)Cc5ccc(F)cc5)cc4)cn3n2)c(OCC(F)(F)F)c1 [Example 01.29, 4-{[6-(4-{[(4-fluorophenyl)acetyl]amino}phenyl)[1,2,4]triazolo[1,5-α]-pyridin-2-yl]amino}-N-(2-hydroxy-2-methylpropyl)-3-(2,2,2-trifluoro-ethoxy)benzamide] | <10% | ≤ 1 nM | ≤ 1 nM
12 | CC(C)(O)CNC(=O)c1ccc(Nc2nc3ccc(-c4ccc(C(=O)NCc5ccc(F)cc5)cc4)cn3n2)c(OCC(F)(F)F)c1 [Example 02.22, 4-[(6-{4-[(4-fluorobenzyl)carbamoyl]phenyl}[1,2,4]triazolo[1,5-α]pyridin-2-yl)amino]-N-(2-hydroxy-2-methylpropyl)-3-(2,2,2-trifluoroethoxy)benzamide] | <10% | ≤ 1 nM | ≤ 1 nM
13 | CNCCN(C)C(=O)c1ccc(Nc2nc3ccc(-c4ccc(C(=O)NCc5ccc(F)cc5)cc4)cn3n2)c(OC)c1 [Example 02.11, 4-[(6-{4-[(4-fluorobenzyl)carbamoyl]phenyl}[1,2,4]triazolo[1,5-α]pyridin-2-yl)amino]-3-methoxy-N-methyl-N-[2-(methylamino)ethyl]benzamide] | <10% | ≤ 1 nM | ≤ 1 nM
14 | CNC(=O)c1ccc(Nc2nc3ccc(-c4ccc(C(=O)NCc5ccc(F)cc5)cc4)cn3n2)c(OC)c1 [Example 02.13, 4-[(6-{4-[(4-fluorobenzyl)carbamoyl]phenyl}[1,2,4]triazolo[1,5-α]pyridin-2-yl)amino]-3-methoxy-N-methylbenzamide] | <10% | ≤ 1 nM | ≤ 1 nM
15 | COc1cc(C(=O)N(C)CCN(C)C(C)=O)ccc1Nc1nc2ccc(-c3ccc(NC(=O)Cc4ccc(F)cc4)cc3)cn2n1 [Example 01.14, N-{2-[acetyl(methyl)amino]ethyl}-4-{[6-(4-{[(4-fluorophenyl)acetyl]amino}-phenyl)[1,2,4]triazolo[1,5-α]pyridin-2-yl]amino}-3-methoxy-N-methylbenzamide] | <10% | ≤ 1 nM | ≤ 1 nM
16 | CCOc1cc(F)ccc1Nc1nc2ccc(-c3ccc(NC(=O)Cc4ccc(F)cc4)cc3)cn2n1 [Example 01.3, N-(4-{2-[(2-ethoxy-4-fluorophenyl)amino][1,2,4]triazolo[1,5-α]pyridin-6-yl}phenyl)-2-(4-fluorophenyl)acetamide] | <10% | 1.1 nM | ≤ 1 nM
17 | CCOc1cc(C(=O)N(CC)CCOC)ccc1Nc1nc2ccc(-c3ccc(C(=O)NCC4CC4)cc3)cn2n1 [Example 06.2, 4-[(6-{4-[(cyclopropylmethyl)carbamoyl]phenyl}[1,2,4]triazolo[1,5-α]-pyridin-2-yl)amino]-3-ethoxy-N-ethyl-N-(2-methoxyethyl)benzamide] | <10% | 26 nM | 1.4 nM
18 | CCNC(=O)c1ccc(Nc2nc3ccc(-c4ccc(NC(=O)Cc5ccc(F)cc5)cc4)cn3n2)c(OC)c1 [Example 01.4, N-ethyl-4-{[6-(4-{[(4-fluorophenyl)acetyl]amino}phenyl)[1,2,4]triazolo[1,5-α]pyridin-2-yl]amino}-3-methoxybenzamide] | <10% | ≤ 1 nM | ≤ 1 nM
